Experimental findings from ChEMBL document CHEMBL2429754, “Design of novel focal adhesion kinase inhibitors using 3D-QSAR and molecular docking” (Med Chem Res, 2013) are described below.

The subject of the assay is 4T1. The experiment in a line: Induction of apoptosis in mouse 4T1 cells after 72 hrs using propidium iodide staining byflow cytometry analysis. In kind it is functional, cell-based. Conditions: 4T1, 72 h.

Structures are written as SMILES.

As for `CNC(=O)c1ccccc1Nc1cc(Nc2ccc(N3CCOCC3)cc2OC)ncc1C(F)(F)F`, the IC50 came out at 0.1 µM.
